Experimental data from patent US5624923A, “Tricyclic diazepine vasopressin antagonists and oxytocin antagonists” (priority 1995, dated 1997).

Experiments:
Rat Hepatic V1 Receptors = biological target: T1, Rat Hepatic V1 Receptors (Rattus norvegicus, UniProt P30560); experiment: Binding Assay to Rat Hepatic V1 Receptors; conditions: for IC50: rat liver membranes, read-out: V1 IC50
T1 construct: Rat liver plasma membranes expressing the vasopressin V1 receptor subtypes; from tissue; host or cells: rat liver plasma membranes
Procedure: Binding Assay to Rat Hepatic V1 Receptors
Rat liver plasma membranes expressing the vasopressin V1 receptor subtypes are isolated by sucrose density gradient according to the method described by Lesko et al., (1973). These membranes are quickly suspended in 50.0 mM Tris.HCl buffer, pH 7.4, containing 0.2% bovine serum albumin (BSA) and 0.1 mM phenylmethylsulfonylfluoride (PMSF) and kept frozen at -70° C. until used in subsequent binding experiments. For binding experiments, the following is added to the wells of a ninety-six well format microtiter plate: 100 μl of 100.0 mM Tris.HCl buffer containing 10.0 mM MgCl2, 0.2% heat inactivated BSA and a mixture of protease inhibitors: leupeptin, 1.0 mg %; aprotinin, 1.0 mg %; 1,10-phenanthroiine,2.0 mg %; trypsin inhibitor, 10.0 mg % and 0.1 mM PMSF, 20.0 μl of [phenylalanyl-3,4,5, -^3 H] vasopressin (S.A. 45.1 Ci/mmole) at 0.8 nM, and the reaction initiated by the addition of 80 μl of tissue membranes containing 20 μg of tissue protein. The plates are kept undisturbed on the bench top at room temperature for 120 min. to reach equilibrium. Non-specific samples are assayed in the presence of 0.1 μM of the unlabeled antagonist phenylalanylvasopressin, added in 20.0 μl volume.
(§1) For test compounds, these are solubilized in 50% dimethylsulfoxide (DMSO) and added in 20.0 μl volume to a final incubation volume of 200 μl . Upon completion of binding, the content of each well is filtered off, using a Brandel® cell Harvester (Gaithersburg, Md.). The radioactivity trapped on the filter disk by the ligand-receptor complex is assessed by liquid scintillation counting in a Packard LS Counter, with an efficiency of 65% for tritium. The data are analyzed for IC50 values by the LUNDON-2 program for competition (LUNDON SOFTWARE, Ohio).

[1] = biological target: T2, Rat Kidney Medullary V2 Receptors (Rattus norvegicus, UniProt Q00788); experiment: Binding Assay to Rat Kidney Medullary V2 Receptors; conditions: for IC50: rat kidney medulla membranes, read-out: V2 IC50
T2 construct: Medullary tissues from rat kidneys are dissected out; from tissue; host or cells: rat kidney medulla membranes
Procedure: Binding Assay to Rat Kidney Medullary V2 Receptors
Medullary tissues from rat kidneys are dissected out, cut into small pieces and soaked in a […] sodium chloride solution containing 1.0 mM EDTA with many changes of the liquid phase, until the solution is clear of blood. The tissue is homogenized in a 0.25M sucrose solution containing 1.0 mM EDTA and 0.1 mM PMSF using a Potter-Elvehjem homogenizer with a teflon pestle. The homogenate is filtered through several layers (4 layers) of cheese cloth. The filtrate is rehomogenized using a dounce homogenizer, with a tight fitting pestle. The final homogenate is centrifuged at 1500× g for 15 min. The nuclear pellet is discarded and the supernatant fluid recentrifuged at 40,000× g for 30 min. The resulting pellet formed contains a dark inner part with the exterior., slightly pink. The pink outer part is suspended in a small amount of 50.0 mM Tris. HCl buffer, pH 7.4. The protein content is determined by the Lowry's method (Lowry et al., J. Biol. Chem., 1953). The membrane suspension is stored at -70° C. in 50.0 mM Tris HCl, containing 0.2% inactivated BSA and 0.1 mM PMSF in aliquots of 1.0 ml containing 10.0 mg protein per ml of suspension until use in subsequent binding experiments.
as §1, with “The plates are left undisturbed on the bench top for 120 min to reach equilibrium. Non-specific binding is assessed in the presence of 1.0 μM of unlabeled ligand, added in 20 μl volume. For” for “For”, “μl.” for “μl .”

Vasopressin V2 = Vasopressin V2 Antagonist Activity in Conscious Hydrated Rats; format: in vivo, rat; conditions: 10 mg/kg orally, AVP 0.4 μg/kg i.p.
Procedure: Vasopressin V2 Antagonist Activity in Conscious Hydrated Rats
Conscious hydrated rats are treated with compounds under study from 0.1 to 100 mg/kg orally or vehicle. Two to four rats are used for each compound. One hour later, arginine vasopressin (AVP, antidiuretic hormore, ADH) dissolved in peanut oil is administered at 0.4 μg/kg intraperitoneally. Two rats in each test would not receive arginine vasopressin but only the vehicle (peanut oil) to serve as water-loading control. Twenty minutes later each rat is given 30 mL/kg of deionized water orally by gavage and is placed individually in a metabolic cage equipped with a funnel and a graduated glass cylinder to collect urine for four hours. Urine volume is measured and osmolality analyzed by use of a Fiske One-Ten osmometer (Fiske Assoc., Norwood, Mass., USA). Urinary sodium, potassium, and chloride are analyzed by use of ion-specific electrodes in a Beckman E3 (Electrolyte 3) Analyzer.

Vasopressin V1 = Vasopressin V1 Antagonist Activity in Conscious Rats (vasopressin vasopressor response); format: in vivo, rat; design: Average Change: unit not given here; conditions: for % Inhibition / Average Change: 10 mg/kg i.v., SHR
Outline: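 Conscious rats are restrained supine, and under local 2% procaine a PE 10/20 cannula is passed through the ventral caudal tail artery into the lower abdominal aorta. The caudal vein is cannulated for intravenous dosing. Blood pressure is recorded with a Statham P23Db transducer, and vasopressin injections are repeated after compound dosing. Percent antagonism is calculated against the pre-drug vasopressor response taken as 100%.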

T2 sequence (Q00788 whole entry): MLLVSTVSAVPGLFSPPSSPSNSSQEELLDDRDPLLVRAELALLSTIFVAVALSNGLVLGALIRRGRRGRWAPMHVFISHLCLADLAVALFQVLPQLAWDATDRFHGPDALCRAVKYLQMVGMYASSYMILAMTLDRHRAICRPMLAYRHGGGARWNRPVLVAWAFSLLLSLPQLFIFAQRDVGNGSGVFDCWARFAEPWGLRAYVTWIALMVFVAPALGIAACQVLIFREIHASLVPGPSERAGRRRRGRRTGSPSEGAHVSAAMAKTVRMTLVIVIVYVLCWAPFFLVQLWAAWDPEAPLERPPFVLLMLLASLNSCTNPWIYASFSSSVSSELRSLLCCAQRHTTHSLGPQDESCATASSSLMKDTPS
T1 sequence (P30560 whole entry): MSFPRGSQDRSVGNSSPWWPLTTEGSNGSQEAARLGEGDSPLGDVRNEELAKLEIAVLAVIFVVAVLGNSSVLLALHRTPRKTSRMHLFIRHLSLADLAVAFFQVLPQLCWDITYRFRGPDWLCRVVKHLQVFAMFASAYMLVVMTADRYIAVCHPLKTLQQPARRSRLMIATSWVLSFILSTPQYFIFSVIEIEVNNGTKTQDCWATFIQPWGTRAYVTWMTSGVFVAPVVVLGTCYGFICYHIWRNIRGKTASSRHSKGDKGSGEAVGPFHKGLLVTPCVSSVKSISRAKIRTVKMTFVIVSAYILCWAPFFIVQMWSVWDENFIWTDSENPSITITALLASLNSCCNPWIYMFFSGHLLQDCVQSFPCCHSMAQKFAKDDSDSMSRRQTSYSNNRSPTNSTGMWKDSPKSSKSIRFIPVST

| SMILES | IC50 (Rat Hepatic V1 Receptors) | IC50 [1] | % Inhibition (Vasopressin V1; VAS 0.01 i.u./kg, 30 min) | Average Change (Vasopressin V1; VAS 0.01 i.u./kg, 30 min) | % Inhibition (Vasopressin V1; VAS 0.01 i.u./kg, 60 min) | Average Change (Vasopressin V1; VAS 0.01 i.u./kg, 60 min) | % Inhibition (Vasopressin V1; VAS 0.01 i.u./kg, 90 min) | Average Change (Vasopressin V1; VAS 0.01 i.u./kg, 90 min) | % Inhibition (Vasopressin V1; VAS 0.01 i.u./kg, 120 min) | Average Change (Vasopressin V1; VAS 0.01 i.u./kg, 120 min) | % Inhibition (Vasopressin V1; VAS 0.01 i.u./kg, 180 min) | Average Change (Vasopressin V1; VAS 0.01 i.u./kg, 180 min) | % Inhibition (Vasopressin V1; VAS 0.01 i.u./kg, 240 min) | Average Change (Vasopressin V1; VAS 0.01 i.u./kg, 240 min) | % Inhibition (Vasopressin V1; VAS 0.01 i.u./kg, 300 min) | Average Change (Vasopressin V1; VAS 0.01 i.u./kg, 300 min) | % Inhibition (Vasopressin V1; VAS 0.02 i.u./kg, 30 min) | Average Change (Vasopressin V1; VAS 0.02 i.u./kg, 30 min) | % Inhibition (Vasopressin V1; VAS 0.02 i.u./kg, 60 min) | Average Change (Vasopressin V1; VAS 0.02 i.u./kg, 60 min) | other results |
| --- | --- | --- | --- | --- | --- | --- | --- | --- | --- | --- | --- | --- | --- | --- | --- | --- | --- | --- | --- | --- | --- |
| O=C(CC1CCCCC1)Nc1ccc(C(=O)N2Cc3cccn3Cc3ccccc32)cc1 [Example 356, N-[4-(5H-Pyrrolo[2,1-c][1,4]benzodiazepin-10(11)ylcarbonyl)phenyl]-cyclohexylacetamide] | 87 nM | 53 nM |  |  |  |  |  |  |  |  |  |  |  |  |  |  |  |  |  |  | Osmolality (Vasopressin V2): 1023 mOsm/kg; Urine Volume (Vasopressin V2): 5.8 ml/4 hrs |
| O=C(Nc1ccc(C(=O)N2Cc3cccn3Cc3ccccc32)cc1)C1CC=CCC1 (stereo not drawn) [Example 354, N-[4-(5H-Pyrrolo[2,1-c][1,4]benzodiazepin-10(11)-ylcarbonyl)phenyl]-3-cyclohexenecarboxamide] | 12 nM | 7 nM |  |  |  |  |  |  |  |  |  |  |  |  |  |  |  |  |  |  | Osmolality (Vasopressin V2): 1010 mOsm/kg; Urine Volume (Vasopressin V2): 8.8 ml/4 hrs |
| Cc1ccccc1C(=O)N(C)c1ccc(C(=O)N2Cc3cccn3Cc3ccccc32)cc1 [Example 384, N-[4-(5H-Pyrrolo[2,1-c][1,4]benzodiazepin-10(11H)-ylcarbonyl)phenyl]-N-methyl-2-methylbenzamide] | 188 nM | 59 nM | 62% | 9 | 62% | 9 | 49% | 12 | 55% | 10.5 | 53% | 11 | 53% | 11 | 49% | 12 | 61% | 14.5 | 72% | 10.5 | % Inhibition (Vasopressin V1; VAS 0.02 i.u./kg, 90 min): 58%; Average Change (Vasopressin V1; VAS 0.02 i.u./kg, 90 min): 15.5; % Inhibition (Vasopressin V1; VAS 0.02 i.u./kg, 120 min): 69%; Average Change (Vasopressin V1; VAS 0.02 i.u./kg, 120 min): 11.5; % Inhibition (Vasopressin V1; VAS 0.02 i.u./kg, 180 min): 64%; Average Change (Vasopressin V1; VAS 0.02 i.u./kg, 180 min): 13.5; % Inhibition (Vasopressin V1; VAS 0.02 i.u./kg, 240 min): 59%; Average Change (Vasopressin V1; VAS 0.02 i.u./kg, 240 min): 15; % Inhibition (Vasopressin V1; VAS 0.02 i.u./kg, 300 min): 54%; Average Change (Vasopressin V1; VAS 0.02 i.u./kg, 300 min): 17 |
| CCOc1ccccc1C(=O)Nc1ccc(C(=O)N2Cc3cccn3Cc3ccccc32)cc1 [Example 84, N-[4-(5H-Pyrrolo[2,1-c][1,4]benzodiazepin-10(11H)-ylcarbonyl)phenyl]-2-ethoxybenzamide] | 45 nM | 77 nM | 77% | 10.5 | 64% | 16.5 | 72% | 13 | 58% | 19.5 | 47% | 24.5 | 43% | 26 | 51% | 22.5 | 76% | 14.5 | 45% | 33.5 | % Inhibition (Vasopressin V1; VAS 0.02 i.u./kg, 90 min): 57%; Average Change (Vasopressin V1; VAS 0.02 i.u./kg, 90 min): 26; % Inhibition (Vasopressin V1; VAS 0.02 i.u./kg, 120 min): 47%; Average Change (Vasopressin V1; VAS 0.02 i.u./kg, 120 min): 32.5; % Inhibition (Vasopressin V1; VAS 0.02 i.u./kg, 180 min): 48%; Average Change (Vasopressin V1; VAS 0.02 i.u./kg, 180 min): 31.5; % Inhibition (Vasopressin V1; VAS 0.02 i.u./kg, 240 min): 39%; Average Change (Vasopressin V1; VAS 0.02 i.u./kg, 240 min): 37; % Inhibition (Vasopressin V1; VAS 0.02 i.u./kg, 300 min): 30%; Average Change (Vasopressin V1; VAS 0.02 i.u./kg, 300 min): 43 |
| O=C(Nc1ccc(C(=O)N2Cc3cccn3Cc3ccccc32)cc1)c1ccccc1C(F)(F)F [Example 91, N-[4-(5H-Pyrrolo[2,1-c][1,4]benzodiazepin-10(11H)-ylcarbonyl)phenyl]-2-(trifluoromethyl)benzamide] | 26 nM | 22 nM | 90% | 5 | 87% | 6.5 | 81% | 9 | 73% | 13 | 55% | 22 | 59% | 20 | 66% | 16.5 | 88% | 7.5 | 89% | 7 | % Inhibition (Vasopressin V1; VAS 0.02 i.u./kg, 90 min): 80%; Average Change (Vasopressin V1; VAS 0.02 i.u./kg, 90 min): 12.5; % Inhibition (Vasopressin V1; VAS 0.02 i.u./kg, 120 min): 72%; Average Change (Vasopressin V1; VAS 0.02 i.u./kg, 120 min): 17.5; % Inhibition (Vasopressin V1; VAS 0.02 i.u./kg, 180 min): 54%; Average Change (Vasopressin V1; VAS 0.02 i.u./kg, 180 min): 29; % Inhibition (Vasopressin V1; VAS 0.02 i.u./kg, 240 min): 53%; Average Change (Vasopressin V1; VAS 0.02 i.u./kg, 240 min): 29.5; % Inhibition (Vasopressin V1; VAS 0.02 i.u./kg, 300 min): 48%; Average Change (Vasopressin V1; VAS 0.02 i.u./kg, 300 min): 32.5 |
| O=C(c1ccc(NS(=O)(=O)c2ccccc2Cl)cc1)N1Cc2cccn2Cc2ccccc21 [Example 488, 10-[4-[[(2-Chlorophenyl)sulfonyl]amino]benzoyl]-10,11-dihydro-5H-pyrrolo[2,1-c][1,4]benzodiazepine] |  |  |  |  |  |  |  |  |  |  |  |  |  |  |  |  |  |  |  |  | Max. % Inhibition (Vasopressin V1; 30 mg/kg i.v.): 43%; Time (of max. % inhibition) (Vasopressin V1; 30 mg/kg i.v.): 60 min; inhibition at 10 µM (Rat Hepatic V1 Receptors; 2 h, 10 μM, rat): 96%; inhibition at 10 µM ([1]; 10 μM, rat): 87% |
